“And” between values parts separate entries of the source, which are not always exact repeats. Equal entries are not always repeated.
Tested on: Angiotensin II vasopressor response
Test: AII challenge: antagonism of angiotensin II vasopressor response in conscious spontaneously hypertensive rats
Assay type: in vivo, rat (Male Okamoto-Aoki SHR)
Conditions: 10 mg/kg I.V.; for % Inhibition / Average Change: SHR n=2; for Response After AII / Change / Control Before AII: individual SHR
Source text: By administering a compound of this invention to a rat, and then challenging with angiotensin II, a blockage of the vasopressor response is realized.
Conscious Male Okamoto-Aoki SHR, 16-20 weeks old, weighing approximately 330 g are purchased from Charles River Labs (Wilmington, Mass.). Conscious rats are restrained in a supine position with elastic tape. The area at the base of the tail is locally anesthetized by subcutaneous infiltration with 2% procaine. The ventral caudal artery and vein are isolated, and a cannula made of polyethylene (PE) 10-20 tubing (fused together by heat) is passed into the lower abdominal aorta and vena cava, respectively. The cannula is secured, heparinized (1,000 I.U./ml), sealed and the wound is closed. The animals are placed in plastic restraining cages in an upright position. The cannula is attached to a Statham P23Db pressure transducer, and pulsatile blood pressure is recorded to 10-15 minutes with a Gould Brush recorder. (Chan et al., (Drug Development Res., 18:75-94, 1989).
Angiotensin II (human sequence, Sigma Chem. Co., St. […] Then a test compound, vehicle or a known angiotensin II antagonist is administered i.v., i.p. or orally to each set of rats. The two doses of angiotensin II are given to each rat again at 30, 60, 90, 120, 180, 240 and 300 minutes post dosing the compound or vehicle. The vasopressor response of angiotensin II is measured for the increase in systolic blood pressure in mmHg. The percentage of antagonism or blockade of the vasopressor response of angiotensin II by a compound is calculated using the vasopressor response (increase in systolic blood pressure) of angiotensin II of each rat predosing the compound as 100%. A compound is considered active if at 30 mg/kg i.v. it antagonized at least 50% of the response.

[1] = AII 0.05 mcg/kg IV, 30 min post dose
[2] = AII 0.05 mcg/kg IV, 60 min post dose
[3] = AII 0.05 mcg/kg IV, 90 min post dose
[4] = AII 0.05 mcg/kg IV, 120 min post dose
[5] = AII 0.05 mcg/kg IV, 180 min post dose
[6] = AII 0.05 mcg/kg IV, 240 min post dose
[7] = AII 0.05 mcg/kg IV, 300 min post dose
[8] = AII 0.1 mcg/kg IV, 30 min post dose
[9] = AII 0.1 mcg/kg IV, 60 min post dose
[10] = AII 0.1 mcg/kg IV, 90 min post dose
[11] = AII 0.1 mcg/kg IV, 120 min post dose
[12] = AII 0.1 mcg/kg IV, 180 min post dose
[13] = AII 0.1 mcg/kg IV, 240 min post dose
[14] = AII 0.1 mcg/kg IV, 300 min post dose
[15] = AII 0.05 mcg/kg IV, 30 min post dose, 10 mg/kg
[16] = AII 0.05 mcg/kg IV, 60 min post dose, 10 mg/kg
[17] = AII 0.05 mcg/kg IV, 90 min post dose, 10 mg/kg
[18] = AII 0.05 mcg/kg IV, 120 min post dose, 10 mg/kg
[19] = AII 0.05 mcg/kg IV, 180 min post dose, 10 mg/kg
[20] = AII 0.05 mcg/kg IV, 240 min post dose, 10 mg/kg
[21] = AII 0.05 mcg/kg IV, 300 min post dose, 10 mg/kg
[22] = AII 0.1 mcg/kg IV, 30 min post dose, 10 mg/kg
[23] = AII 0.1 mcg/kg IV, 60 min post dose, 10 mg/kg
[24] = AII 0.1 mcg/kg IV, 90 min post dose, 10 mg/kg
[25] = AII 0.1 mcg/kg IV, 120 min post dose, 10 mg/kg
[26] = AII 0.1 mcg/kg IV, 180 min post dose, 10 mg/kg
[27] = AII 0.1 mcg/kg IV, 240 min post dose, 10 mg/kg
[28] = AII 0.1 mcg/kg IV, 300 min post dose, 10 mg/kg

CCCCc1nc2ccc(C3=NN[C@H]4C(=O)N(C)C(=O)[C@@H]34)cc2c(=O)n1Cc1ccc(-c2ccccc2-c2nnn[nH]2)cc1 (relative stereo) [Example 7]
% Inhibition [1]: 57%
Average Change [1]: 20 mmHg
% Inhibition [2]: 57%
Average Change [2]: 20 mmHg
% Inhibition [3]: 57%
Average Change [3]: 20 mmHg
% Inhibition [4]: 62%
Average Change [4]: 17.5 mmHg
% Inhibition [5]: 67%
Average Change [5]: 15 mmHg
% Inhibition [6]: 62%
Average Change [6]: 17.5 mmHg
% Inhibition [7]: 24%
Average Change [7]: 35 mmHg
% Inhibition [8]: 50%
Average Change [8]: 27.5 mmHg
% Inhibition [9]: 58%
Average Change [9]: 23 mmHg
% Inhibition [10]: 59%
Average Change [10]: 22.5 mmHg
% Inhibition [11]: 67%
Average Change [11]: 18 mmHg
% Inhibition [12]: 50%
Average Change [12]: 27.5 mmHg
% Inhibition [13]: 55%
Average Change [13]: 25 mmHg
% Inhibition [14]: 54%
Average Change [14]: 25.5 mmHg
Response After AII [1]: 240 mmHg
Change [15]: 15 mmHg and 25 mmHg
Control Before AII [15]: 150 mmHg and 215 mmHg
Response After AII [15]: 165 mmHg
Change [16]: 15 mmHg and 25 mmHg
Control Before AII [16]: 145 mmHg and 215 mmHg
Response After AII [16]: 160 mmHg and 240 mmHg
Response After AII [3]: 230 mmHg
Change [17]: 40 mmHg and 0 mmHg
Control Before AII [17]: 135 mmHg and 230 mmHg
Response After AII [17]: 175 mmHg
Response After AII [4]: 160 mmHg
Change [18]: 20 mmHg and 15 mmHg
Control Before AII [18]: 140 mmHg and 200 mmHg
Response After AII [18]: 215 mmHg
Change [19]: 25 mmHg and 5 mmHg
Control Before AII [19]: 140 mmHg and 205 mmHg
Response After AII [19]: 165 mmHg and 210 mmHg
Change [20]: 25 mmHg and 10 mmHg
Control Before AII [20]: 135 mmHg and 190 mmHg
Response After AII [20]: 160 mmHg and 200 mmHg
Change [7]: 35 mmHg
Control Before AII [21]: 140 mmHg and 190 mmHg
Response After AII [21]: 175 mmHg and 225 mmHg
Change [22]: 20 mmHg and 35 mmHg
Control Before AII [22]: 140 mmHg and 215 mmHg
Response After AII [22]: 160 mmHg and 250 mmHg
Change [23]: 15 mmHg and 31 mmHg
Control Before AII [23]: 145 mmHg and 224 mmHg
Response After AII [23]: 160 mmHg and 255 mmHg
Change [24]: 25 mmHg and 20 mmHg
Control Before AII [24]: 140 mmHg and 215 mmHg
Response After AII [24]: 165 mmHg and 235 mmHg
Response After AII [11]: 160 mmHg
Change [25]: 25 mmHg and 11 mmHg
Control Before AII [25]: 135 mmHg and 214 mmHg
Response After AII [25]: 225 mmHg
Change [26]: 35 mmHg and 20 mmHg
Control Before AII [26]: 140 mmHg and 195 mmHg
Response After AII [26]: 175 mmHg and 215 mmHg
Change [27]: 35 mmHg and 15 mmHg
Control Before AII [27]: 140 mmHg and 190 mmHg
Response After AII [27]: 175 mmHg and 205 mmHg
Change [28]: 40 mmHg and 11 mmHg
Control Before AII [28]: 140 mmHg and 205 mmHg
Response After AII [28]: 180 mmHg and 216 mmHg
